Measurements reported in patent US6534655B1, “Indeno[1,2-C]pyrazole derivatives for inhibiting tyrosine kinase activity” (BASF Aktiengesellschaft, priority 1997, dated 2003).
pIC50: −log10 of the molar value.

Assays:
KDR tyrosine kinase = biological target: T1, KDR tyrosine kinase (Homo sapiens, UniProt P35968); assay: KDR in vitro ELISA (tyrosine kinase activity); format: biochemical; conditions: ATP 5 μM, 5% DMSO, poly(Glu,Tyr) 4:1 substrate
T1 construct: poly-His6 (N); made in house; host or cells: SF-9 insect cells (recombinant baculovirus, pVL1393)
T1 sequence (P35968 789-1354): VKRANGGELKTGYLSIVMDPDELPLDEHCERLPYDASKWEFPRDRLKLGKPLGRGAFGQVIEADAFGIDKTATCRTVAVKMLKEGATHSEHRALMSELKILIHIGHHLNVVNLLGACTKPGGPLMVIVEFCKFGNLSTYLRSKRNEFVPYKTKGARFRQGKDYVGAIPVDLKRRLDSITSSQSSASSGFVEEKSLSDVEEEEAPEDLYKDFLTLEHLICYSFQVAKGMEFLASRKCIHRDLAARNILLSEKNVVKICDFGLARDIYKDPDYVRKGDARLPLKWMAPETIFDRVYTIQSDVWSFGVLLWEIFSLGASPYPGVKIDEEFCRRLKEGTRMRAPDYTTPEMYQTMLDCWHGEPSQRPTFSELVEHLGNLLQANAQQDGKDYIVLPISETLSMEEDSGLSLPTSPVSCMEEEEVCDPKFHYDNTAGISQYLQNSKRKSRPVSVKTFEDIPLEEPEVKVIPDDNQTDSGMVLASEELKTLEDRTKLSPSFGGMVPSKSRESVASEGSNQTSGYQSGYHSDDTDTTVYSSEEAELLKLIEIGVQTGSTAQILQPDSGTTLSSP
Description: The coding sequence for the KDR intra-cellular domain (aa789-1354) was generated through PCR using cDNAs isolated from HUVEC cells. A poly-His6 sequence was introduced at the N-terminus of this protein as well. This fragment was cloned into transfection vector pVL1393 at the Xba 1 and Not 1 site. Recombinant baculovirus (BV) was generated through co-transfection using the BaculoGold Transfection reagent (PharMingen). Recombinant BV was plaque purified and verified through Western analysis. For protein production, SF-9 cells were grown in SF-900-II medium at 2×10^6/ml, and were infected at 0.5 plaque forming units per cell (MOI). Cells were harvested at 48 hours post infection.
SF-9 cells expressing (His)6KDR(aa789-1354) were lysed by adding 50 ml of Triton X-100 lysis buffer (20 mM Tris, pH 8.0, 137 mM NaCl, 10% glycerol, 1% Triton X-100, 1 mM PMSF, 10 μg/ml aprotinin, 1 μg/ml leupeptin) to the cell pellet from 1 L of cell culture. The lysate was centrifuged at 19,000 rpm in a Sorval SS-34 rotor for 30 min at 4° C. The cell lysate was applied to a 5 ml NiCl2 chelating sepharose column, equilibrated with 50 mM HEPES, pH7.5, 0.3 M NaCl. KDR was eluted using the same buffer containing 0.25 M imidazole. Column fractions were analyzed using SDS-PAGE and an ELISA assay (below) which measures kinase activity. The purified KDR was exchanged into 25 mM HEPES, pH7.5, 25 mM NaCl, 5 mM DTT buffer and stored at −80° C.
The disclosed protocol can be adapted for determining activity with respect to a specific RTK. For example, preferred protocols for conducting the ELISA experiments for KDR is provided below. Adaptation of these protocols for determining a compound's activity for other members of the RTK family, as well as non-receptor tyrosine kinases, are well within the abilities of those in the art. […]
Stop with 1M Phosphoric acid. Shake on plate reader.
Read OD immediately at 450 nm
Optimal incubation times and enzyme reaction conditions vary slightly with enzyme preparations and are determined empirically for each lot.

[1] = system: Human umbilical vein endothelial cells (HUVEC); assay: HUVEC mitogenesis assay (tritiated thymidine incorporation); format: cell-based; conditions: mitogenesis induced by VEGF, FGF or Complete Media (stimulus not given)
Procedure: B. HUVEC Mitogenesis Assay
Human umbilical vein endothelial cells (HUVEC) were cultured in EGM-Complete Media (endothelial growth media supplemented with 10% FBS, hydrocortisone, epidermal growth factor and bovine brain extract as per the supplier's directions). Cells, media and supplements were purchased from Clonetics (San Diego, Calif.). The HUVEC Mitogenesis Assay was used to measure inhibition of mitogenesis induced by VEGF, FGF or Complete Media. Cells were harvested by trypsinization, washed once and suspended in Complete Media (CM) at a concentration of 5,000 cells/0.15 ml. Cells were seeded into 96-well plates at 5,000 cells/well and incubated at 37° C. for 24 hours. Cells were washed once with serum-free media (SFM) and incubated under serum-free conditions for 24 hours. Non-serum starved control wells were cultured with CM during this period. Test compounds were prepared as 10 mM stock solutions in DMSO, diluted in SFM and added to wells over a concentration range (0.005-50 μM final concentration). Cells were incubated for 1 hour prior to addition of 50 ng/ml VEGF or FGF (R & D Systems, Minneapolis, Minn.). Complete media stimulated wells received the test compound and stimulus simultaneously. […] Plates were harvested onto filter mats with a Tomtec Harvester and counted with a Betaplate liquid scintillation counter (Wallac).

KDR = biological target: T2, KDR (Homo sapiens, UniProt P35968); assay: VEGF-induced KDR phosphorylation in HUVEC measured by Western blots; format: cell-based; conditions: VEGF(165) 50 ng/ml, Western blot, read-out: cellular IC50 (VEGF-induced KDR phosphorylation)
T2 construct: HUVEC cells (from pooled donors) were purchased from Clonetics (San Diego, Calif.) and cultured according to the manufacturer directions; host or cells: HUVEC (pooled donors, passages 3-8)
T2 sequence (P35968 20-1356): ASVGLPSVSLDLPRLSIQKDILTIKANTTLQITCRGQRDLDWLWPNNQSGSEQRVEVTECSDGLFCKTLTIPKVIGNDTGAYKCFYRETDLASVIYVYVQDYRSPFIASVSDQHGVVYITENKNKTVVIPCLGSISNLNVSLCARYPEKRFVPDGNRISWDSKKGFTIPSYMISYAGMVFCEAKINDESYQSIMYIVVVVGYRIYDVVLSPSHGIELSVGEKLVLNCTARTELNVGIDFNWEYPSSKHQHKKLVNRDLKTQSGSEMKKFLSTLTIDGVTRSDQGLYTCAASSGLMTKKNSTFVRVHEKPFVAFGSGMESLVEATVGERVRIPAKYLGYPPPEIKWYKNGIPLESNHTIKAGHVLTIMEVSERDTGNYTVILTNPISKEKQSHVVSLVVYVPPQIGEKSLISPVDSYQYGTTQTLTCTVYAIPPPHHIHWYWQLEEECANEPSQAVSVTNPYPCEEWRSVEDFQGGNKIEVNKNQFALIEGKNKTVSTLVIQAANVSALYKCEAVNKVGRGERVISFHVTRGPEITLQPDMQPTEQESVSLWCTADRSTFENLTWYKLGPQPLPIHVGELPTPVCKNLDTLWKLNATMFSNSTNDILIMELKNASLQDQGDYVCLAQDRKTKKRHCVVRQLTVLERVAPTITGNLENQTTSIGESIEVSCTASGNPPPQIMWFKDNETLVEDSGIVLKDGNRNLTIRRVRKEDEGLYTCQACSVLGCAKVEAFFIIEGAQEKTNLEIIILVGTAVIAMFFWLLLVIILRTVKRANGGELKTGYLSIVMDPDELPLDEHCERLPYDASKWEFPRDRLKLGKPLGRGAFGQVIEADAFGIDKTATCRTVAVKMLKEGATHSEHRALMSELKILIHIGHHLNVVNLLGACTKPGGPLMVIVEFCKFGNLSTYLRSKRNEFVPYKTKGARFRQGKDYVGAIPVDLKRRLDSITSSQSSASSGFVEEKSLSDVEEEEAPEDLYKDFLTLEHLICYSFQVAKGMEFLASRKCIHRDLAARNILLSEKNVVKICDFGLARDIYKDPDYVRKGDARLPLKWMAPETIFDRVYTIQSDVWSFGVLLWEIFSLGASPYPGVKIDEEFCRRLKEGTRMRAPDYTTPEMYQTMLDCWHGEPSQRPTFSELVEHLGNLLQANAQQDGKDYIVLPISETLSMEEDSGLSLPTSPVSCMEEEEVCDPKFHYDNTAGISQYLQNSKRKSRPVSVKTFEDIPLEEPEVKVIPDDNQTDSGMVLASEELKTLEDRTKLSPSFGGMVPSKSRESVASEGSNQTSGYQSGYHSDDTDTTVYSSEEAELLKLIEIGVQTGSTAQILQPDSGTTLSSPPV
Procedure: A. VEGF-Induced KDR Phosphorylation in Human Umbilical Vein Cells (HUVEC) as Measured by Western Blots.
1. HUVEC cells (from pooled donors) were purchased from Clonetics (San Diego, Calif.) and cultured according to the manufacturer directions. Only early passages (3-8) were used for this assay. Cells were cultured in 100 mm dishes (Falcon for tissue culture; Becton Dickinson; Plymouth, England) using complete EBM media (Clonetics).
2. For evaluating a compound's inhibitory activity, cells were trypsinized and seeded at 0.5-1.0×10^5 cells/well in each well of 6-well cluster plates (Costar; Cambridge, Mass.).
3. 3-4 days after seeding, plates were 90-100% confluent. Medium was removed from all the wells, cells were rinsed with 5-10 ml of PBS and incubated 18-24 h with 5 ml of EBM base media with no supplements added (i.e., serum starvation).
4. Serial dilutions of inhibitors were added in 1 ml of EBM media (25 uM, 5 uM, or 1 uM final concentration) to cells and incubated for one hour at 37° C. Human recombinant VEGF(165) (R&D Systems) was then added to all the wells in 2 ml of EBM medium at a final concentration of 50 ng/ml and incubated at 37° C. for 10 minutes. Control cells untreated or treated with VEGF only were used to assess background phosphorylation and induction by VEGF.
5. […]

Structure (SMILES)	pIC50 (KDR tyrosine kinase)	melting point [°C]	other results
Cc1c2c(nn1-c1ccccc1)-c1ccccc1C2=O	< 4.00		
O=C1c2ccccc2-c2[nH]nc(-c3ccccc3)c21 [3-phenylindeno[1,2-c]pyrazol-4(1H)-one]	6.82		pIC50 [1]: > 7.00; pIC50 (KDR): 5.52
COc1cc(-c2n[nH]c3c2C(=O)c2ccccc2-3)cc(OC)c1OC [Example 2, 3-(3,4,5-Trimethoxyphenyl)indeno[1,2-c]pyrazol-4(1H)-one]		268 to 272	
CN1NC(c2ccccc2)C2=C1c1ccccc1C2=O (stereo not shown) [Example 5, 1-methyl-3-phenylindeno[1,2-c]pyrazol-4(2H)-one]		187 to 188	

Further lines, with some results ahead:

pIC50 (KDR tyrosine kinase)	melting point [°C]	Structure (SMILES)	other results
	197 to 199	COc1ccc(-c2n[nH]c3c2C(O)c2ccccc2-3)cc1OC (stereo not shown) [Example 6, 3-(3,4-dimethoxyphenyl)-1,4-dihydroindeno[1,2-c]pyrazol-4-ol]	
< 4.00		C1=NC(n2nc(-c3ccccc3)cc2-c2ccccc2)NC1 (stereo not shown)	
	269 to 272	OC1c2ccccc2-c2[nH]nc(-c3ccccc3)c21 (stereo not shown) [Example 7, 3-phenyl-1,4-dihydroindeno[1,2-c]pyrazol-4-ol]	
	> 330	O=C1c2ccccc2-c2[nH]nc(-c3ccc(Cl)cc3)c21 [Example 3, 3-(4-chlorophenyl)indeno[1,2-c]pyrazol-4(1H)-one]	
